≈ marks a conversion by molar mass, not a printed value. Calls of active or inactive are those of the source. No cut-off for these calls is given here.
Assays:
[1] = tested on: Escherichia coli; experiment: Antimicrobial activity against Escherichia coli K-12 assessed as inhibition of visible growth incubated for 18 hrs; type: functional
[2] = tested on: Staphylococcus aureus; experiment: Antimicrobial activity against Staphylococcus aureus ATCC 29213 assessed as inhibition of visible growth incubated for 18 hrs; type: functional
[3] = tested on: Pseudomonas aeruginosa; experiment: Antimicrobial activity against Pseudomonas aeruginosa BAA 2108 assessed as inhibition of visible growth incubated for 18 hrs; type: functional
[4] = tested on: Klebsiella pneumoniae; experiment: Antimicrobial activity against Klebsiella pneumoniae BAA 1144 assessed as inhibition of visible growth incubated for 18 hrs; type: functional
[5] = tested on: Enterococcus faecium; experiment: Antimicrobial activity against Enterococcus […] ATCC 29212 assessed as inhibition of visible growth incubated for 18 hrs; type: functional
[6] = tested on: Enterobacter cloacae; experiment: Antimicrobial activity against Enterobacter cloacae BAA 1143 assessed as inhibition of visible growth incubated for 18 hrs; type: functional
[7] = tested on: Acinetobacter baumannii; experiment: Antimicrobial activity against Acinetobacter baumannii ATCC 19606 assessed as inhibition of visible growth incubated for 18 hrs; type: functional
[8] = tested on: Staphylococcus aureus; experiment: Antimicrobial activity against Staphylococcus aureus BAA 41 assessed as inhibition of visible growth incubated for 18 hrs; type: functional
[9] = tested on: Klebsiella pneumoniae; experiment: Antimicrobial activity against Klebsiella pneumoniae BAA 2470 assessed as inhibition of visible growth incubated for 18 hrs; type: functional
[10] = tested on: Pseudomonas aeruginosa; experiment: Antimicrobial activity against Pseudomonas aeruginosa ATCC 27853 assessed as inhibition of visible growth incubated for 18 hrs; type: functional
[11] = tested on: Staphylococcus aureus; experiment: Antimicrobial activity against Staphylococcus aureus BAA 44 assessed as inhibition of visible growth incubated for 18 hrs; type: functional
[12] = tested on: Escherichia coli; experiment: Antimicrobial activity against Escherichia coli BAA 2469 assessed as inhibition of visible growth incubated for 18 hrs; type: functional
[13] = tested on: Bacillus subtilis; experiment: Antimicrobial activity against Bacillus subtilis 168 assessed as inhibition of visible growth incubated for 18 hrs; type: functional
[14] = tested on: Escherichia coli; experiment: Antimicrobial activity against Escherichia coli ATCC 25923 assessed as inhibition of visible growth incubated for 18 hrs; type: functional
[15] = tested on: Lysobacter enzymogenes; experiment: Germicidal activity against Lysobacter enzymogenes YC36 at 5 to 10 pM; type: functional
[16] = tested on: Erythrocyte; experiment: Toxicity in human erythrocytes assessed as induction of hemolysis incubated for 1 hr by visual absorption spectroscopy; type: cell-based
[17] = tested on: Bacillus subtilis; experiment: Bactericidal activity against Bacillus subtilis 168; type: functional
[18] = tested on: Lysobacter enzymogenes; experiment: Antimicrobial activity against Lysobacter enzymogenes YC36 assessed as inhibition of visible growth incubated for 18 hrs; type: functional
[19] = tested on: L02; experiment: Cytotoxicity in human L02 cells assessed as reduction in cell viability at >64 ug/ml incubated for 48 hrs by resazurin dye based assay; settings: l02, 48 h
[20] = tested on: L02; experiment: Cytotoxicity in human L02 cells assessed as reduction in cell viability at <32 ug/ml incubated for 48 hrs by resazurin dye based assay; settings: l02, 48 h
[21] = tested on: Staphylococcus aureus; experiment: Bactericidal activity against Staphylococcus aureus ATCC 29213; type: functional
[22] = tested on: Escherichia coli; experiment: Bactericidal activity against Escherichia coli K-12; type: functional
[23] = tested on: Pseudomonas aeruginosa; experiment: Bactericidal activity against Pseudomonas aeruginosa ATCC 27853; type: functional
[24] = tested on: Lysobacter enzymogenes; experiment: Bactericidal activity against Lysobacter enzymogenes YC36 at 4 ug/ml; type: functional
[25] = tested on: Acinetobacter baumannii; experiment: Bactericidal activity against Acinetobacter baumannii ATCC 19606; type: functional; settings: ATCC 19606 = CIP 70.34 = JCM 6841
[26] = tested on: Enterococcus faecium; experiment: Bactericidal activity against Enterococcus […] ATCC 29212; type: functional
[27] = Stability in human plasma assessed as parent compound remaining at […] measured after 2 hrs by HPLC analysis; type: ADME, cell-free; settings: read-out: Stability
[28] = Antimicrobial activity against Lysobacter enzymogenes YC36 assessed as inhibition of visible growth measured after 7th generation exposure to compound by continuous repeated transfer assay relative to before passage; type: functional
[29] = tested on: Erythrocyte; experiment: Toxicity in human erythrocytes assessed as induction of hemolysis at <50 ug/ml incubated for 1 hr by spectrometry; type: cell-based
[30] = Bactericidal activity against Lysobacter enzymogenes YC36; type: functional
[31] = tested on: Erythrocyte; experiment: Toxicity in human erythrocytes assessed as induction of hemolysis incubated for 1 hr by spectrometry; type: cell-based
[32] = tested on: Shigella flexneri; experiment: Bactericidal activity against Shigella flexneri ATCC 29903; type: functional
[33] = Stability in human plasma assessed as parent compound degradation at […] measured after 6 hrs by HPLC analysis; type: ADME, cell-free; settings: read-out: Drug degradation

**Q.** With COLISTIN as the molecule, how does the MIC [1] read?
**A.** 2 µg/mL

**Q.** What about the MIC [2] of the same molecule?
**A.** > 128 µg/mL

**Q.** What about the MIC [3] of the same molecule?
**A.** 4 µg/mL

**Q.** What about the MIC [4] of the same molecule?
**A.** 2 µg/mL

**Q.** And the MIC [5]?
**A.** > 128 µg/mL

**Q.** And the MIC [6]?
**A.** 4 µg/mL

**Q.** And the MIC ([7]; ATCC 19606 = CIP 70.34 = JCM 6841)?
**A.** 4 µg/mL

**Q.** And the MIC [8]?
**A.** > 128 µg/mL

**Q.** And the MIC [9]?
**A.** 2 µg/mL

**Q.** What about the MIC [10] of the same molecule?
**A.** 4 µg/mL

**Q.** And the MIC [11]?
**A.** > 128 µg/mL

**Q.** And the MIC [12]?
**A.** 2 µg/mL

**Q.** What about the MIC [13] of the same molecule?
**A.** 16 µg/mL

**Q.** What about the MIC [14] of the same molecule?
**A.** 2 µg/mL

**Q.** Which Activity [15] does the source give for `O=S(=O)(Nc1ccccc1)c1ccc(NC(=S)Nc2ccccc2)cc1` here?
**A.** inactive

**Q.** For `CC[C@H](C)[C@@H]1NC(=O)CNC(=O)[C@H](CCCNC(=N)N)NC(=O)[C@H](Cc2ccc(O)cc2)NC(=O)[C@@H]2CSSC[C@H](NC1=O)C(=O)N[C@@H](Cc1ccc(O)cc1)C(=O)N[C@@H](CCCNC(=N)N)C(=O)N[C@@H](CCCNC(=N)N)C(=O)N[C@H](C(=O)N[C@@H](CCCNC(=N)N)C(N)=O)CSSC[C@H](NC(=O)[C@H](Cc1c[nH]c3ccccc13)NC(=O)[C@@H](N)CCCCN)C(=O)N[C@@H](Cc1ccccc1)C(=O)N[C@@H](CCCNC(=N)N)C(=O)N[C@@H](C(C)C)C(=O)N2`, which MIC ([1]; K-12, 18 h) is on record?
**A.** 4 µg/mL (≈ 1.77 µM)

**Q.** And the MHC [16]?
**A.** 0.25 µg/mL

**Q.** And the MIC ([2]; ATCC 29213, 18 h)?
**A.** 8 µg/mL (≈ 3.53 µM)

**Q.** What about the MIC ([3]; BAA 2108, 18 h) of the same molecule?
**A.** 8 µg/mL (≈ 3.53 µM)

**Q.** What about the MBC [17] of the same molecule?
**A.** 16 to 64 µg/mL (≈ 7.07 to 28.3 µM)

**Q.** And the MIC ([4]; BAA 1144, 18 h)?
**A.** 8 µg/mL (≈ 3.53 µM)

**Q.** And the Activity [18]?
**A.** Dose-dependent effect

**Q.** What about the MIC ([5]; ATCC 29212, 18 h) of the same molecule?
**A.** 8 µg/mL (≈ 3.53 µM)

**Q.** And the Activity [19]?
**A.** Toxic

**Q.** And the Activity [20]?
**A.** Non-Toxic

**Q.** And the MIC ([6]; BAA 1143, 18 h)?
**A.** 8 µg/mL (≈ 3.53 µM)

**Q.** And the MBC [21]?
**A.** 16 to 64 µg/mL (≈ 7.07 to 28.3 µM)

**Q.** What about the MIC ([7]; ATCC 19606 = CIP 70.34 = JCM 6841, 18 h) of the same molecule?
**A.** 8 to 16 µg/mL (≈ 3.53 to 7.07 µM)

**Q.** What about the MIC ([8]; BAA 41, 18 h) of the same molecule?
**A.** 4 µg/mL (≈ 1.77 µM)

**Q.** What about the MBC [22] of the same molecule?
**A.** 16 to 64 µg/mL (≈ 7.07 to 28.3 µM)

**Q.** What about the MBC [23] of the same molecule?
**A.** 16 to 64 µg/mL (≈ 7.07 to 28.3 µM)

**Q.** What about the MIC ([9]; BAA 2470, 18 h) of the same molecule?
**A.** 16 µg/mL (≈ 7.07 µM)

**Q.** And the Activity [24]?
**A.** inactive

**Q.** What about the MIC ([10]; ATCC 27853, 18 h) of the same molecule?
**A.** 4 to 8 µg/mL (≈ 1.77 to 3.53 µM)

**Q.** What about the MIC ([11]; BAA 44, 18 h) of the same molecule?
**A.** 4 µg/mL (≈ 1.77 µM)

**Q.** What about the MIC ([12]; BAA 2469, 18 h) of the same molecule?
**A.** 8 µg/mL (≈ 3.53 µM)

**Q.** What about the MBC [25] of the same molecule?
**A.** 16 to 64 µg/mL (≈ 7.07 to 28.3 µM)

**Q.** And the MBC [26]?
**A.** 16 to 64 µg/mL (≈ 7.07 to 28.3 µM)

**Q.** What about the remaining at 2 h [27] of the same molecule?
**A.** 20%

**Q.** And the MIC ([13]; Bacillus subtilis, 168, 18 h)?
**A.** 4 µg/mL (≈ 1.77 µM)

**Q.** And the MIC ([14]; ATCC 25923, 18 h)?
**A.** 2 to 4 µg/mL (≈ 0.883 to 1.77 µM)

**Q.** And the “fold change (FC)” value [28]?
**A.** 2

**Q.** What about the Activity [29] of the same molecule?
**A.** Toxic

**Q.** What about the MBC [30] of the same molecule?
**A.** 16 to 64 µg/mL (≈ 7.07 to 28.3 µM)

**Q.** What about the Activity [31] of the same molecule?
**A.** Dose-dependent effect

**Q.** And the MBC [32]?
**A.** 16 to 64 µg/mL (≈ 7.07 to 28.3 µM)

**Q.** And the metabolised at 6 h [33]?
**A.** 100%
